In patent publication US20230143604A1, “QW DOSING OF GIP RECEPTOR AGONIST PEPTIDE COMPOUNDS AND USES THEREOF” (TAKEDA PHARMACEUTICAL COMPANY LIMITED, priority 2020, published 2023):
Starred links: 1 amine or outer side, 2 acyl side, 3 side chain; linkers in the order of their positions; H or OH if unused. Non-standard residues stand in square brackets, D forms with d. Residues, ends and D or L forms follow the SMILES beside them. Groups on a side chain read outwards from the residue. *: point of attachment. C18 diacid = O=C(O)CCCCCCCCCCCCCCCCC(=O)*; C17 diacid = O=C(O)CCCCCCCCCCCCCCCC(=O)*; γGlu = O=C(O)[C@H](CCC(=O)[*:2])N[*:1]; NMeY = CN[C@@H](Cc1ccc(O)cc1)C(=O)O; AEEA = NCCOCCOCC(=O)O; Aib = CC(C)(N)C(=O)O

Assay: physchem
Procedure: Solubility of the GIPR peptides may be determined by dissolution in a phosphate buffer followed by quantitation using liquid chromatography, for example, High Performance Liquid Chromatogry (HPLC). An illustrative method is provided. For determination of the solubility of the GIPr agonist peptides, 3 mg of peptides are weighted out in a small glass vial. 100 μL of 200 mM Phosphate buffer pH 7.4 are added and the vial is sonicated/votexed as necessary for a maximum of 1 min. […] If insoluble material is observed in the tube the addition of 100 μL of buffer and mixing is repeated until complete dissolution.
3 mg of peptides are weighted out in a small glass vial. 100 uL of 200 mM Phosphate buffer pH 7.4 are added and the vial is sonicated/votexed as necessary for a maximum of 1 min. […] If insoluble material is observed in the tube the addition of 100 uL of buffer and mixing is repeated until complete dissolution.

[1] = pH 7.4, aqueous buffer, pH 7.4 Phosphate Buffer - Solubility, 200 mM Phosphate buffer pH 7.4

Compound | solubility (pH 7.4) | solubility (pH 7.4, aqueous buffer) | solubility [1]
CC[C@H](C)[C@H](NC(=O)[C@H](CO)NC(=O)[C@H](Cc1ccc(O)cc1)NC(=O)[C@H](CC(=O)O)NC(=O)[C@H](CO)NC(=O)[C@@H](NC(=O)[C@H](Cc1ccccc1)NC(=O)[C@@H](NC(=O)CNC(=O)[C@H](CCC(=O)O)NC(=O)C(C)(C)NC(=O)[C@H](Cc1ccc(O)cc1)NC)[C@@H](C)O)[C@@H](C)CC)C(=O)N[C@@H](C)C(=O)N[C@@H](CC(C)C)C(=O)N[C@@H](CC(=O)O)C(=O)N[C@@H](CCCNC(=N)N)C(=O)NC(C)(C)C(=O)N[C@@H](C)C(=O)N[C@@H](CCC(N)=O)C(=O)NC(C)(C)C(=O)N[C@@H](CC(=O)O)C(=O)N[C@@H](Cc1ccccc1)C(=O)N[C@H](C(=O)N[C@@H](CC(N)=O)C(=O)N[C@@H](Cc1c[nH]c2ccccc12)C(=O)N[C@@H](CC(C)C)C(=O)N[C@@H](CC(C)C)C(=O)N[C@@H](C)C(=O)N[C@@H](CCCCNC(=O)COCCOCCNC(=O)COCCOCCNC(=O)CC[C@H](NC(=O)CC[C@H](NC(=O)CCCCCCCCCCCCCCCCC(=O)O)C(=O)O)C(=O)O)C(=O)N[C@@H](CCCNC(=N)N)C(=O)NCC(=O)O)C(C)C [Compound 56] (H-[NMeY][Aib]EGTFISDYSIALDR[Aib]AQ[Aib]DFVNWLLAK([AEEA-AEEA-γGlu-γGlu-C18 diacid])RG-OH) | ≥ 15 mg/mL | ≥ 30 mg/mL | 
CC[C@H](C)[C@H](NC(=O)[C@H](Cc1ccccc1)NC(=O)[C@@H](NC(=O)CNC(=O)[C@H](CCC(=O)O)NC(=O)C(C)(C)NC(=O)[C@H](Cc1ccc(O)cc1)NC)[C@@H](C)O)C(=O)N[C@@H](CO)C(=O)N[C@@H](CC(=O)O)C(=O)N[C@@H](Cc1ccc(O)cc1)C(=O)N[C@@H](CO)C(=O)N[C@H](C(=O)NC(C)(C)C(=O)N[C@@H](CC(C)C)C(=O)N[C@@H](CC(=O)O)C(=O)N[C@@H](CCCNC(=N)N)C(=O)NC(C)(C)C(=O)N[C@@H](C)C(=O)N[C@@H](CCC(N)=O)C(=O)NC(C)(C)C(=O)N[C@@H](CCCCNC(=O)COCCOCCNC(=O)COCCOCCNC(=O)CC[C@H](NC(=O)CC[C@H](NC(=O)CCCCCCCCCCCCCCCCC(=O)O)C(=O)O)C(=O)O)C(=O)N[C@@H](Cc1ccccc1)C(=O)N[C@H](C(=O)N[C@@H](CC(N)=O)C(=O)N[C@@H](Cc1c[nH]c2ccccc12)C(=O)N[C@@H](CC(C)C)C(=O)N[C@@H](CC(C)C)C(=O)N[C@@H](C)C(=O)N[C@@H](CCC(N)=O)C(=O)N[C@@H](CCCCN)C(=O)NCC(=O)O)C(C)C)[C@@H](C)CC [Compound 66] (H-[NMeY][Aib]EGTFISDYSI[Aib]LDR[Aib]AQ[Aib]K([AEEA-AEEA-γGlu-γGlu-C18 diacid])FVNWLLAQKG-OH) | ≥ 15 mg/mL | ≥ 30 mg/mL | 
CC[C@H](C)[C@H](NC(=O)[C@H](CO)NC(=O)[C@H](Cc1ccc(O)cc1)NC(=O)[C@H](CC(=O)O)NC(=O)[C@H](CO)NC(=O)[C@@H](NC(=O)[C@H](Cc1ccccc1)NC(=O)[C@@H](NC(=O)CNC(=O)[C@H](CCC(=O)O)NC(=O)C(C)(C)NC(=O)[C@H](Cc1ccc(O)cc1)NC)[C@@H](C)O)[C@@H](C)CC)C(=O)N[C@@H](C)C(=O)N[C@@H](CCCCNC(=O)CNC(=O)CNC(=O)CNC(=O)CNC(=O)CNC(=O)CCCCCCCCCCCCCCCCC(=O)O)C(=O)N[C@@H](CC(=O)O)C(=O)N[C@@H](CCCCN)C(=O)NC(C)(C)C(=O)N[C@@H](Cc1c[nH]cn1)C(=O)N[C@@H](CCC(N)=O)C(=O)NC(C)(C)C(=O)N[C@@H](CC(N)=O)C(=O)N[C@@H](Cc1ccccc1)C(=O)N[C@H](C(=O)N[C@@H](CC(N)=O)C(=O)N[C@@H](Cc1c[nH]c2ccccc12)C(=O)N[C@@H](CC(C)C)C(=O)N[C@@H](CC(C)C)C(=O)N[C@@H](C)C(=O)N[C@@H](CCC(N)=O)C(=O)N[C@@H](CCCCN)C(=O)NCC(=O)N[C@@H](CCCCN)C(=O)N[C@@H](CCCCN)C(=O)N[C@@H](CC(N)=O)C(=O)N[C@@H](CC(N)=O)C(=O)N[C@@H](Cc1c[nH]c2ccccc12)C(=O)N[C@@H](CCCCN)C(=O)N[C@@H](Cc1c[nH]cn1)C(=O)N[C@@H](CC(N)=O)C(N)=O)C(C)C [Compound 281] |  | < 15 mg/mL | 
CC[C@H](C)[C@H](NC(=O)[C@H](Cc1ccccc1)NC(=O)[C@@H](NC(=O)CNC(=O)[C@H](CCC(=O)O)NC(=O)C(C)(C)NC(=O)[C@H](Cc1ccc(O)cc1)NC)[C@@H](C)O)C(=O)N[C@@H](CO)C(=O)N[C@@H](CC(=O)O)C(=O)N[C@@H](Cc1ccc(O)cc1)C(=O)N[C@@H](CO)C(=O)N[C@H](C(=O)NC(C)(C)C(=O)N[C@@H](CCCCNC(=O)CNC(=O)CNC(=O)CNC(=O)CNC(=O)CNC(=O)CC[C@H](NC(=O)CCCCCCCCCCCCCCCC(=O)O)C(=O)O)C(=O)N[C@@H](CC(=O)O)C(=O)N[C@@H](CCCNC(=N)N)C(=O)NC(C)(C)C(=O)N[C@@H](C)C(=O)N[C@@H](CCC(N)=O)C(=O)NC(C)(C)C(=O)N[C@@H](CC(=O)O)C(=O)N[C@@H](Cc1ccccc1)C(=O)N[C@H](C(=O)N[C@@H](CC(N)=O)C(=O)N[C@@H](Cc1c[nH]c2ccccc12)C(=O)N[C@@H](CC(C)C)C(=O)N[C@@H](CC(C)C)C(=O)N[C@@H](C)C(=O)N[C@@H](CCC(N)=O)C(=O)N[C@@H](CCCNC(=N)N)C(N)=O)C(C)C)[C@@H](C)CC [Compound 265] |  | ≥ 7.5 mg/mL | 
CC[C@H](C)[C@H](NC(=O)[C@H](CO)NC(=O)[C@H](Cc1ccc(O)cc1)NC(=O)[C@H](CC(=O)O)NC(=O)[C@H](CO)NC(=O)[C@@H](NC(=O)[C@H](Cc1ccccc1)NC(=O)[C@@H](NC(=O)CNC(=O)[C@H](CCC(=O)O)NC(=O)C(C)(C)NC(=O)[C@H](Cc1ccc(O)cc1)NC)[C@@H](C)O)[C@@H](C)CC)C(=O)N[C@@H](C)C(=O)N[C@@H](CC(C)C)C(=O)N[C@@H](CC(=O)O)C(=O)N[C@@H](CCCNC(=N)N)C(=O)NC(C)(C)C(=O)N[C@@H](Cc1c[nH]cn1)C(=O)N[C@@H](CCC(N)=O)C(=O)NC(C)(C)C(=O)N[C@@H](CC(N)=O)C(=O)N[C@@H](Cc1ccccc1)C(=O)N[C@H](C(=O)N[C@@H](CC(N)=O)C(=O)N[C@@H](Cc1c[nH]c2ccccc12)C(=O)N[C@@H](CC(C)C)C(=O)N[C@@H](CC(C)C)C(=O)N[C@@H](C)C(=O)N[C@@H](CCCCNC(=O)COCCOCCNC(=O)COCCOCCNC(=O)CC[C@H](NC(=O)CC[C@H](NC(=O)CCCCCCCCCCCCCCCC(=O)O)C(=O)O)C(=O)O)C(=O)N[C@@H](CCCNC(=N)N)C(N)=O)C(C)C [Compound 258] (H-[NMeY][Aib]EGTFISDYSIALDR[Aib]HQ[Aib]NFVNWLLAK([AEEA-AEEA-γGlu-γGlu-C17 diacid])R-NH2) |  | ≥ 6 mg/mL | 
CC[C@H](C)[C@H](NC(=O)[C@H](Cc1ccccc1)NC(=O)[C@@H](NC(=O)CNC(=O)[C@H](CCC(=O)O)NC(=O)C(C)(C)NC(=O)[C@H](Cc1ccc(O)cc1)NC)[C@@H](C)O)C(=O)N[C@@H](CO)C(=O)N[C@@H](CC(=O)O)C(=O)N[C@@H](Cc1ccc(O)cc1)C(=O)N[C@@H](CO)C(=O)N[C@H](C(=O)NC(C)(C)C(=O)N[C@@H](CCCCNC(=O)CNC(=O)CNC(=O)CNC(=O)CNC(=O)CNC(=O)CC[C@H](NC(=O)CCCCCCCCCCCCCCCC(=O)O)C(=O)O)C(=O)N[C@@H](CC(=O)O)C(=O)N[C@@H](CCCNC(=N)N)C(=O)NC(C)(C)C(=O)N[C@@H](C)C(=O)N[C@@H](CCC(N)=O)C(=O)NC(C)(C)C(=O)N[C@@H](CC(N)=O)C(=O)N[C@@H](Cc1ccccc1)C(=O)N[C@H](C(=O)N[C@@H](CC(N)=O)C(=O)N[C@@H](Cc1c[nH]c2ccccc12)C(=O)N[C@@H](CC(C)C)C(=O)N[C@@H](CC(C)C)C(=O)N[C@@H](C)C(=O)N[C@@H](CCC(N)=O)C(=O)N[C@@H](CCCNC(=N)N)C(=O)N1CCC[C@H]1C(=O)N[C@@H](CO)C(=O)N[C@@H](CO)C(=O)NCC(=O)N[C@@H](C)C(=O)N1CCC[C@H]1C(=O)N1CCC[C@H]1C(=O)N1CCC[C@H]1C(=O)N[C@@H](CO)C(N)=O)C(C)C)[C@@H](C)CC [Compound 261] |  |  | < 6 mg/mL
CC[C@H](C)[C@H](NC(=O)[C@H](Cc1ccccc1)NC(=O)[C@@H](NC(=O)CNC(=O)[C@H](CCC(=O)O)NC(=O)C(C)(C)NC(=O)[C@H](Cc1ccc(O)cc1)NC)[C@@H](C)O)C(=O)N[C@@H](CO)C(=O)N[C@@H](CC(=O)O)C(=O)N[C@@H](Cc1ccc(O)cc1)C(=O)N[C@@H](CO)C(=O)N[C@H](C(=O)NC(C)(C)C(=O)N[C@@H](CCCCNC(=O)CNC(=O)CNC(=O)CNC(=O)CNC(=O)CNC(=O)CC[C@H](NC(=O)CCCCCCCCCCCCCCCCC(=O)O)C(=O)O)C(=O)N[C@@H](CC(=O)O)C(=O)N[C@@H](CCCNC(=N)N)C(=O)NC(C)(C)C(=O)N[C@@H](C)C(=O)N[C@@H](CCC(N)=O)C(=O)NC(C)(C)C(=O)N[C@@H](CC(N)=O)C(=O)N[C@@H](Cc1ccccc1)C(=O)N[C@H](C(=O)N[C@@H](CC(N)=O)C(=O)N[C@@H](Cc1c[nH]c2ccccc12)C(=O)N[C@@H](CC(C)C)C(=O)N[C@@H](CC(C)C)C(=O)N[C@@H](C)C(=O)N[C@@H](CCC(N)=O)C(=O)N[C@@H](CCCNC(=N)N)C(=O)N1CCC[C@H]1C(=O)N[C@@H](CO)C(=O)N[C@@H](CO)C(=O)NCC(=O)N[C@@H](C)C(=O)N1CCC[C@H]1C(=O)N1CCC[C@H]1C(=O)N1CCC[C@H]1C(=O)N[C@@H](CO)C(N)=O)C(C)C)[C@@H](C)CC [Compound 262] |  |  | < 6 mg/mL
